Article PMC7906907, “Targeting STAT3 by a small molecule suppresses pancreatic cancer progression” (Oncogene, 2021)
Several values for one entry are separate records, joined by “and”; a condition that tells them apart may be missing. Equal entries are not always repeated.

Legend:
[1] = system: CAPAN-2, PANC-1, and MIAPACA-2 cells; assay: Colony formation; format: cell-based; conditions: 7 days
Experimental: Fig. 4 N4 suppresses pancreatic cancer cell proliferation and migration and induces apoptosis. A Pancreatic cancer cells (CAPAN-2, PANC-1, MIAPACA-2, BXPC-3, HPAC, and CFPAC-1) and normal cells (HPNE, HAF) were incubated with the indicated concentration of N4 for 48 h. MTS assays were performed to detect the N4-mediated inhibition of cell proliferation. Data are shown as mean ± SD, *P < 0.05, **P < 0.01, ***P < 0.001, ****P < 0.0001, n.s. not significant by one-way ANOVA followed by multiple comparisons. B, C CAPAN-2, PANC-1, and MIAPACA-2 cells were treated with N4 (B) or C188-9 (C) for 7 days. The cells fixed and stained, and colony numbers were calculated. Experiments were carried out in triplicate with identical results obtained. […] Apoptotic cells were analyzed as described in Materials and Methods. […] In F, after 48 h transfection, transfected cells were seeded in 96-well plates, and cells were enumerated at day 1, day 2, and day 4, In G, different cells transfected with different siRNA were treated with the indicated concentrations of N4, and cell viability measured after a 48 h treatment. Data are expressed as mean ± SD, *P < 0.05, ***P < 0.001, n.s. not significant by one-way ANOVA followed by multiple comparisons. […] Data are expressed as mean ± SD, *P < 0.05, ***P < 0.001, n.s. not significant; Student’s t tests were performed. […]

PANC-1 cells = assay: PANC-1 shNC / shSTAT3 xenograft with drug withdrawal; format: in vivo, Mice
Source text: To provide further evidence that STAT3 is the direct target of N4, we constructed two STAT3 stable knockdown cell lines by the short hairpin RNA (shRNA) (Supplementary Fig. S10A), and the sequence of shRNA was list in Supplementary Table S3. […] At the meantime, the effect of drug withdrawal on tumor volume and weight was also examined. After 20 days of treatment, all the drug or vehicle were removed and the tumor was allowed to grow for another 12 days. […] Thus, N4 kept the suppression on tumor growth compared to vehicle group during the drug withdrawal period.
Supplementary Figure 10. STAT3 knockdown cells are resistant to N4 in vivo. (A) PANC-1 cells were transfected with shRNA that targeted STAT3 or negative control, and the knockdown efficiency was examined by western blot. (B) Mice bearing the PANC-1 cells within STAT3 stable knockdown (shSTAT3-1#) or negative control (shNC), and administration N4 or vehicle (control) every day by i.p. After 20 days treatment, the N4 and vehicle were removed for another 12 days. Then the mice were sacrificed and the tumor was removed and photographed (n=5 per group). (C) The tumor volume was measured every 3-4 days and the volume was calculated by the formula: length × width2 ×0.52, data are shown as mean ± SD, ****P < 0.0001 and n.s., not significant by one-way ANOVA followed by multiple-comparison tests. (D) After […]

[2] = target: His-STAT3^127-722 protein (Homo sapiens, UniProt P40763); assay: Fluorescence polarization (FP) assay, STAT3-phosphopeptide interaction; format: binding; set-up: We purified amino acids 127–722 of the STAT3 protein for this assay; made in house; conditions: N4 pre-incubated with STAT3 protein 1 h, then 10 nM labeled peptide 1 h; read-out: IC50, block of the STAT3-peptide interaction
Sequence of His-STAT3^127-722 protein (P40763 127-722): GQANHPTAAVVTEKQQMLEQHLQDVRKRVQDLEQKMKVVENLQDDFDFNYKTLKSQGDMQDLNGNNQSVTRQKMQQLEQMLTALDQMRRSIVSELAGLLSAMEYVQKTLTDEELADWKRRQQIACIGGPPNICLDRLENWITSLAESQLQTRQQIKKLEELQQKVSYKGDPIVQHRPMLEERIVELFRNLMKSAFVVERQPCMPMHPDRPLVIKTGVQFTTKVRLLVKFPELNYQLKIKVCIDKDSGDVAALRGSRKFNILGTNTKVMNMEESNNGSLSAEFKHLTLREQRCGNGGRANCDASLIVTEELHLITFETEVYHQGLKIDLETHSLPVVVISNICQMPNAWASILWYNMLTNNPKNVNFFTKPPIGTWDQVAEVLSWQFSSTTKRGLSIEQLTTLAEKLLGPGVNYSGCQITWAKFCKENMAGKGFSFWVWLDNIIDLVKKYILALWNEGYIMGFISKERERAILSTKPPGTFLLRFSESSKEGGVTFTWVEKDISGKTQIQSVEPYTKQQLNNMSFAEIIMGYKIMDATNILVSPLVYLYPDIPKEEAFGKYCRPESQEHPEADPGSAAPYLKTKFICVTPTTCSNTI
Experimental: A Purified STAT3 protein was incubated with labeled phosphopeptide, 5-carboxyfluorescein-GpYLPQTV-NH2 for 1 h at 37 °C. FP signals were measured, and the data were analyzed using Graph Pad 7.0 software. […] C Different concentrations of N4 were pre-incubated with recombined STAT3 protein for 1 h, then 10 nM of labeled peptide was added for 1 h. The IC50 was calculated using Graph Pad 7.0.
The labeled phosphopeptide: 5-carboxyfluorescein-GpYLPQTV-NH2 (where pY represents phospho-Tyr) was used as the STAT3 binding probe. To evaluate the effect of compounds in inhibiting STAT3-peptide interaction, serial dilutions of the STAT3 competitors were prepared. The diluted compounds were added to the reaction mixture in 100 μl of FP buffer (50 mM HEPES, pH 7.5, 150 mM NaCl, 0.1% NP-40, and 1 mM dithiothreitol) containing 500 nM his-STAT3^127–722 protein for pre-incubation at 37 °C for 1 h. Then, 10 nM of the labeled peptide was added and incubated for 1 h. After incubation, FP was measured on a Cytation^TM 5 cell imaging multi-mode Reader (BioTek) using excitation and emission wavelengths of 480 nm and 535 nm, respectively. Each reaction was repeated two or three times. Binding or competitive parameters were calculated from a nonlinear regression using GraphPad Prism 7.0.

For `COc1cc2c(cc1C(=O)Nc1cccc3cccnc13)CCC1C(C)(C)C(=O)C(C#N)=C[C@]21C` (stereo partly shown) [N4], the “colony formation, compared with C188-9 and BP-1-102” value [1] was “more potently inhibited”, the “sensitivity of STAT3 stable knockdown cells to treatment” value (PANC-1 cells; compared with control cells) was “not sensitive” and the “increase in tumor volume during the drug withdrawal period” value (PANC-1 cells; shNC-N4 group, 20 days treatment i.p., then 12 days withdrawal) was 249.49 mm^3. For the same molecule, the IC50 [2] was 570 nM and 568 nM.
